Reference: patent publication US5434150A, “Condensed 5-membered heterocyclic compounds, processes for preparing them and pharmaceutical preparations containing these compounds” (Dr. Karl Thomae GmbH, priority 1991, dated 1995)
Where a name gives a salt, the structure may show the parent alone. Read-outs that look alike come from different tables or passages of the source.

Experiments:
Human Thrombocytes = assay: Fibrinogen binding to human thrombocytes (fibrinogen binding test)
Experimental: 1. Fibrinogen Binding to Human Thrombocytes The blood obtained by puncturing an antecubital vein is anticoagulated with trisodium citrate (final concentration: 13 mM) and centrifuged for 10 minutes at 170× g. The supernatant platelet-rich plasma is poured onto a Sepharose 2B column (Pharmacia) and eluted with a solution of 90 mM common salt, 14 mM trisodium citrate, 5 mM glucose and 50 mM tris(hydroxymethyl)aminomethane, adjusted to pH 7.4. The gel-filtered platelets (GFP) appearing before the plasma proteins are used for the binding experiments. 50 μl of a 60 mM calcium chloride solution, 50 μl of a 0.6 mM adenosine diphosphate solution, 100 μl of substance solution or solvent and 50 μl of fibrinogen solution (containing 3 μg of ^125 fibrinogen) are added to 750 μl of GFP and incubated for 20 minutes at ambient temperature. The non-specific binding is determined in the presence of 3 mg/ml of cold fibrinogen. 900 μl of the incubated material are carefully pipetted onto 250 μl of silicon oil (AP 38: AR 20, 1:2 v/v, Wacker Chemie) in Eppendorf tubes and centrifuged for 2 minutes at 10,000× g. The aqueous supernatant and some of the oil are drawn off, the tips of the tubes are cut off together with the platelet pellet and the quantity of bound fibrinogen is determined in a gamma counter. The concentration of substance which brings about a 50% inhibition in fibrinogen binding is determined from a series of concentrations and is given as the IC50 value. | *^125 I fibrogen was replaced by […] |e.

[1] = tested on: platelet aggregation (platelet-rich plasma); assay: Antithrombotic activity: inhibition of collagen-induced platelet aggregation in platelet-rich plasma (Born and Cross); assay type: cell-based, human (healthy volunteers); details: 50% change in optical density, human platelet-rich plasma, 10 min preincubation
Experimental: 2. Antithrombotic Activity Method The thrombocyte aggregation is measured using the Born and Cross method (J. Physiol. 170:397 (1964)) in platelet-rich plasma taken from healthy volunteers. To inhibit coagulation the blood is mixed with 3.14% sodium citrate in a ratio by volume of 1:10. Collagen-induced aggregation The pattern of the decrease in optical density of the platelet suspension is photometrically measured and recorded after the addition of aggregation-triggering substance. The rate of aggregation is concluded from the angle of inclination of the density curve. The point on the curve where there is maximum light transmittance is used to calculate the optical density. The amount of collagen used is as small as possible but sufficient to produce an irreversible reaction curve. Standard commercial collagen produced by Hormonchemie of Munich is used. Before the addition of the collagen the plasma is incubated for 10 minutes with the substance at […]. From the measurements obtained an EC50 is determined graphically, indicating a 50% change in the optical density in terms of the inhibition of aggregation.

mice = assay: Tolerance after intravenous administration to mice; assay type: in vivo; details: 30 mg/kg intravenous, three mice
[2] = 125I fibrinogen, 50% inhibition of fibrinogen binding, gel-filtered human platelets, ADP, 20 min ambient temperature, read-out: Fibrinogen binding test IC50
[3] = *: 125I fibrinogen replaced by 3H-(3S,5S)-5-[(amidino-biphenylyl)-oxymethyl]-carboxymethyl-pyrrolidinone ligand, read-out: Fibrinogen binding test IC50 (values marked *)

SMILES	IC50 (Human Thrombocytes; [2])	EC50 [1]	IC50 (Human Thrombocytes; [3])	deaths after intravenous administration (mice)
COC(=O)CCNC(=O)c1cc2nc(-c3ccc(C(=N)N)cc3)n(C)c2cc1N(C)C(=O)OCC(C)C [3(130), 2-(4-amidino-phenyl)-6-(N-isobutyloxycarbonyl-N-methyl-amino)-5-[(2-methoxycarbonyl-ethyl)-aminocarbonyl]-1-methyl-benzimidazole]	14 µM	0.16 µM	–	–
COC(=O)CCNC(=O)c1ccc2c(c1)nc(-c1ccc(C(=N)N)cc1)n2CCCN1CCS(=O)(=O)CC1 [5(6), 2-(4-amidino-phenyl)-1-[3-(S,S-dioxido-thiomorpholino)-propyl]-5-[(2-methoxycarbonyl-ethyl)-aminocarbonyl]-benzimidazole-hydrochloride]	–	18 µM	5.5 µM	–
N=C(N)c1ccc(-c2nc3cc(C(=O)NCCC(=O)OC4CCCCC4)ccc3n2CCCCc2ccccc2)cc1 [13(3), 2-(4-amidino-phenyl)-5-[(2-cyclohexyloxycarbonyl-ethyl)-aminocarbonyl]-1-(4-phenyl-butyl)-benzimidazole dihydrochloride]	–	4.3 µM	1.4 µM	–
COC(=O)CCNC(=O)c1ccc2[nH]c(-c3ccc(C(=N)N)cc3)nc2c1 [15(1), 2-(4-amidino-phenyl)-5(6)-[(2-methoxycarbonyl-ethyl)-aminocarbonyl]-benzimidazole-hydrochloride]	–	4.1 µM	2.5 µM	–
Cn1c(-c2ccc(CN)cc2)nc2cc(C(=O)NCCC(=O)O)ccc21 [17(1), 2-(4-aminomethyl-phenyl)-5-[(2-carboxy-ethyl)-aminocarbonyl]-1-methyl-benzimidazole-dihydrobromide]	0.7 µM	1.53 µM	–	–
COc1ccc(CCn2c(-c3ccc(C(=N)N)cc3)nc3cc(C(=O)NCCC(=O)O)ccc32)cc1OC [17(2), 2-(4-amidino-phenyl)-5-[(2-carboxy-ethyl)-aminocarbonyl]-1-[2-(3,4-dimethoxy-phenyl)-ethyl]-benzimidazole-dihydrobromide]	–	0.08 µM	0.022 µM	–
CCCCCCCCCCCCCCn1c(-c2ccc(CN)cc2)nc2cc(C(=O)NCCC(=O)O)ccc21 [17(4), 2-(4-aminomethyl-phenyl)-5-[(2-carboxy-ethyl)-aminocarbonyl]-1-n-tetradecyl-benzimidazole-dihydrobromide]	–	> 100 µM	1.9 µM	–
CCCCCCCCCCCCCCn1c(-c2ccc(C(=N)N)cc2)nc2cc(C(=O)NCCC(=O)O)ccc21 [17(6), 2-(4-amidino-phenyl)-5-[(2-carboxy-ethyl)-aminocarbonyl]-1-n-tetradecyl-benzimidazole-dihydrobromide]	–	30 µM	1.8 µM	–
N=C(N)c1ccc(-c2nc3cc(C(=O)NCCC(=O)O)ccc3n2CCCCc2ccccc2)cc1 [17(7), 2-(4-amidino-phenyl)-5-[(2-carboxy-ethyl)-aminocarbonyl]-1-(4-phenyl-butyl)-benzimidazole-dihydrobromide]	–	0.29 µM	0.0054 µM	–
N=C(N)c1ccc(-c2nc3cc(C(=O)NCCC(=O)O)ccc3n2CCC(c2ccccc2)c2ccccc2)cc1 [17(9), 2-(4-amidino-phenyl)-5-[(2-carboxy-ethyl)-aminocarbonyl]-1-(3,3-diphenyl-propyl)-benzimidazole-dihydrobromide]	–	1.14 µM	0.0095 µM	–
Cn1c(-c2ccc(C(=N)N)cc2)nc2cc(C(=O)N3CCCC(C(=O)O)C3)ccc21 (stereo not shown) [17(10), 2-(4-amidino-phenyl)-5-[(3-carboxy-piperidino)-carbonyl]-1-methyl-benzimidazole-dihydrobromide]	26 µM	27 µM	–	–
Cn1c(-c2ccc(C(=N)N)cc2)nc2cc(C(=O)NCCC(=O)O)cnc21 [17(13), 2-(4-amidino-phenyl)-6-[(2-carboxy-ethyl)-aminocarbonyl]-3-methyl-imidazo[4,5-b]pyridine-dihydrobromide]	–	0.04 µM	0.02 µM	–
Cn1c(-c2ccc(C(=N)N)cc2)nc2cc(C(=O)NCCC(=O)O)ccc21 [Example 1(3), 2-(4-amidino-phenyl)-5-[(2-carboxy-ethyl)-aminocarbonyl]-1-methyl-benzimidazole]	0.037 µM	0.07 µM	–	no animals died
Cn1c(-c2ccc(C(=N)N)cc2)nc2cc(C(=O)NCCCC(=O)O)ccc21 [Example 1, 2-(4-Amidino-phenyl)-5-[(3-carboxy-propyl)-aminocarbonyl]-1-methyl-benzimidazole]	33 µM	27 µM	–	–
COC(=O)CCNC(=O)c1ccc2c(c1)nc(-c1ccc(CN)cc1)n2CCCN [Example 6, 2-(4-Aminomethyl-phenyl)-1-(3-amino-propyl)-5-[(2-methoxycarbonyl-ethyl)-aminocarbonyl]-benzimidazole]	4 µM	3.7 µM	–	–
COc1ccc(CCn2c(-c3ccc(C(=N)N)cc3)nc3cc(C(=O)NCCC(=O)OC(C)C)ccc32)cc1OC [Example 13, 2-(4-Amidino-phenyl)-1-[2-(3,4-dimethoxy-phenyl)-ethyl]-5-[(2-isopropyloxycarbonyl-ethyl)-aminocarbonyl]-benzimidazole-dihydrochloride]	–	5.7 µM	1.7 µM	–
NCCCn1c(-c2ccc(CN)cc2)nc2cc(C(=O)NCCC(=O)O)ccc21 [Example 17, 2-(4-Aminomethyl-phenyl)-1-(3-amino-propyl)-5-[(2-carboxy-ethyl)-aminocarbonyl]-benzimidazole-hydrogen acetate]	1 µM	3.8 µM	–	–

Now from value to molecule, other results behind:

IC50 (Human Thrombocytes; [2])	EC50 [1]	IC50 (Human Thrombocytes; [3])	SMILES	deaths after intravenous administration (mice)
0.14 µM	0.08 µM	–	COC(=O)CCCCn1c(=O)c2nc(-c3ccc(C(=N)N)cc3)n(C)c2n(C)c1=O [3(141), 8-(4-amidino-phenyl)-3,9-dimethyl-1-(4-methoxycarbonyl-butyl)-xanthine hyd rochloride-hydroacetate]	–
–	0.98 µM	0.13 µM	N=C(N)c1ccc(-c2nc3cc(C(=O)NCCC(=O)OCC4CCCCC4)ccc3n2CCCCc2ccccc2)cc1 [13(6), 2-(4-amidino-phenyl)-5-[(2-cyclohexylmethyloxy-carbonyl-ethyl)-aminocarbonyl]-1-(4-phenyl-butyl)-benzimidazole dihydrochloride]	–
–	0.43 µM	0.17 µM	N=C(N)c1ccc(-c2nc3cc(C(=O)NCCC(=O)O)ccc3n2Cc2cccnc2)cc1 [17(3), 2-(4-amidino-phenyl)-5-[(2-carboxy-ethyl)-aminocarbonyl]-1-(3-pyridylmethyl)-benzimidazole-dihydrobromide]	–
–	2.13 µM	0.37 µM	COc1ccc(CCn2c(-c3ccc(CN)cc3)nc3cc(C(=O)NCCC(=O)O)ccc32)cc1OC [17(5), 2-(4-aminomethyl-phenyl)-5-[(2-carboxy-ethyl)-aminocarbonyl]-1-[2-(3,4-dimethoxy-phenyl)-ethyl]-benzimidazole-dihydrobromide]	–
–	0.35 µM	0.047 µM	N=C(N)c1ccc(-c2nc3cc(C(=O)NCCC(=O)O)ccc3n2CCc2cc(Br)c(N)c(Br)c2)cc1 [17(8), 2-(4-amidino-phenyl)-1-[2-(4-amino-3,5-dibromo-phenyl)-ethyl]-5-[(2-carboxy-ethyl)-aminocarbonyl]-benzimidazole-dihydrobromide]	–
–	43 µM	15 µM	COC(=O)CCNC(=O)c1ccc2c(c1)nc(-c1ccc(C(=N)N)cc1)n2CCCN1CC[S+]([O-])CC1 [Example 5, 2-(4-Amidino-phenyl)-5-[(2-methoxycarbonyl-ethyl)-aminocarbonyl]-1-[3-(S-oxido-thiomorpholino)-propyl]-benzimidazole-hydrochloride]	–
0.028 µM	0.04 µM	–	N=C(N)c1ccc(-c2nc3cc(C(=O)NCCC(=O)O)ccc3n2CCN2CCNCC2)cc1 [Example 15, 2-(4-Amidino-phenyl)-5-[(2-carboxy-ethyl)-aminocarbonyl]-1-(2-piperazino-ethyl)-benzimidazole-hydrogen acetate]	–
